The results in this text go back to paper PMC3345099 (Journal of Immunology (Baltimore, Md. : 1950), 2012).

Residues, ends and D or L forms follow the SMILES beside them. No end group written: not given here.

Common to all, as to assay: In vitro radiolabeled competitive HLA binding assay
The target in test [1] is HLA B*08:01 (purified MHC class I) (Homo sapiens, UniProt P01889, A93T/A95T/D138N/E176V/E187T/K202T/Q94N/R180D/S35A/V36M/Y33D/Y91F).
Test [2] has as its target HLA B*07:02 (purified MHC class I) (Homo sapiens, UniProt P01889).
The target in test [3] is HLA A*02:01 (purified MHC class I) (Homo sapiens, UniProt P04439, D140Y/D185E/D98H/E176V/E277Q/G131W/G231S/I119V/I121R/I166T/I218V/L300P/L318F/N151K/N90K/P208A/P217A/Q86G/Q94H/R138H/R169H/T345S).
Test [4] concerns the target HLA A*26:01 (purified MHC class I) (Homo sapiens, UniProt P04439, A114D/A173T/A270S/D101N/D185E/E277Q/E87N/F33Y/G231S/I121R/I218V/K168Q/L180W/L300P/L318F/P208A/P217A/Q86R/Q94H/R138Q/S129P/T187R/T323A/T345S/V100A/V358M).
For test [5], the target named is HLA B*40:01 (purified MHC class I) (Homo sapiens, UniProt P01889, A65T/A93T/A95T/D138N/D98Y/E176V/E69K/N87E/Q56L/Q94N/R180L/S121R/S35A/S48T/T167S/V36M/W171L/Y33H/Y91S).
Test [6] has as its target HLA B*40:02 (purified MHC class I) (Homo sapiens, UniProt P01889, A65T/A93T/A95T/D138N/D201E/D98Y/E176V/E204Q/E69K/K202T/N87E/Q56L/Q94N/R180L/S48T/Y33H/Y91S).

A word on the IC50: it is the concentration needed to halve the response being measured. A low value points to greater potency. In test [1], `CC(C)C[C@H](NC(=O)[C@H](CCC(=O)O)NC(=O)[C@H](CC(=O)O)NC(=O)[C@H](CS)NC(=O)[C@H](CCCCN)NC(=O)[C@H](CCCCN)NC(=O)[C@H](CCCCN)NC(=O)[C@H](CO)NC(=O)[C@@H](N)Cc1c[nH]cn1)C(=O)O` displayed a concentration for half-maximal inhibition (IC50) of 764 nM. In turn, `CC[C@H](C)[C@H](N)C(=O)N1CCC[C@H]1C(=O)N[C@@H](Cc1ccccc1)C(=O)N[C@@H](Cc1ccc(O)cc1)C(=O)NCC(=O)N[C@@H](CCCCN)C(=O)N[C@@H](C)C(=O)N[C@H](C(=O)O)[C@@H](C)CC` registered an IC50 in test [2] of 497 nM.

With `CC(C)C[C@H](NC(=O)[C@H](C)NC(=O)[C@H](CC(C)C)NC(=O)[C@@H](N)CC(C)C)C(=O)N[C@@H](CC(C)C)C(=O)N[C@@H](CO)C(=O)N[C@@H](CS)C(=O)N[C@@H](CC(C)C)C(=O)N[C@H](C(=O)N[C@H](C(=O)O)C(C)C)[C@@H](C)O`, in test [3], the concentration for half-maximal inhibition (IC50) came out at 357 nM. Compound `CSCC[C@H](NC(=O)[C@H](CO)NC(=O)[C@H](CS)NC(=O)[C@H](CS)NC(=O)[C@@H](NC(=O)[C@@H](NC(=O)[C@@H](N)CC(=O)O)C(C)C)C(C)C)C(=O)N[C@@H](CO)C(=O)N[C@@H](Cc1ccc(O)cc1)C(=O)O` (H-DVVCCSMSY-OH) registered an IC50 in test [4] of 25 nM.

In turn, FLVGQLFTF came in with an IC50 in test [3] of 67 nM.

On to GIDPNIRTGV, for which the IC50 in test [3] turned out to be 722 nM. In test [3], GVDPNIRTGV registered an IC50 of 351 nM. In test [2], HPALVFDIT showed an IC50 of 160 nM. As to LEDRDRSEL, the IC50 in test [5] amounted to 426 nM; in test [6], 4270 nM. In the case of RLWHYPCTV, the concentration for half-maximal inhibition (IC50) in test [3] was determined as 12 nM. In test [3], SLLAPGAKQNV yielded a concentration for half-maximal inhibition (IC50) of 513 nM. Same read-out and setting: next, VLSDFKTWL: 305 nM.
